Measured values reported in patent US12180181B1, “4-[4,5-bis(4-bromophenyl)-1-hexyl-1H-imidazol-2-yl]isoquinolin-3-ol as an antimicrobial compound” (KING FAISAL UNIVERSITY, priority 2023, dated 2024).

Experiments:
Format in all cases: cell-based
Conditions in all cases: after 10, 20, 40 and 60 minutes at all dilutions 1:100, 1:200, 1:400, 1:800
[1] = system: Staphylococcus aureus; assay: Antimicrobial screening by agar dilution, Staphylococcus aureus
Description: (§1) The antimicrobial properties of the 4-[4,5-bis(4-bromophenyl)-1-hexyl-1H-imidazol-2-yl]isoquinolin-3-ol was studied by the method of agar dilution. Test solutions of each compound was prepared in concentration of 1% using dimethylformamide as a solvent then they are diluted in physiological solution to obtain the final experimental dilutions 1:100, 1:200, 1:400, 1:800. The effect of these substances are compared with furacillin in a controlled study. The testing microbes used were gram positive bacteria Staphylococcus aureus, gram negative bacteria Pseudomonas aeruginosa and Escherichia coli and Candida albicans fungi were taken. The experiments used for this survey were meat-pentonlu agar (EPA) for cultivation of bacteria and Saburo environment for fungi. Each experiment used 1 ml of test solution on each plate 500 min. Add 2 drops of emulsified with microbes feel. All experimental samples were taken from the agar after 10, 20, 40, 60 minutes in the environment on the basis of Patrk planted. Bacteria were cultivated at a temperature of 37° C. for 1 day and the mushroom was kept in a thermostat for […] at a temperature of 28° C. in the. Then results were checked.

[2] = system: Escherichia coli; assay: Antimicrobial screening by agar dilution, Escherichia coli
Description: as §1

[3] = system: Pseudomonas aeruginosa; assay: Antimicrobial screening by agar dilution, Pseudomonas aeruginosa
Description: as §1

[4] = system: Candida albicans; assay: Antimicrobial screening by agar dilution, Candida albicans
Description: as §1

Measured: inhibition activity (in words)

CCCCCCn1c(-c2c(O)ncc3ccccc23)nc(-c2ccc(Br)cc2)c1-c1ccc(Br)cc1 [4-[4,5-bis(4-bromophenyl)-1-hexyl-1H-imidazol-2-yl]isoquinolin-3-ol]
highest inhibition activity: all assays above
